The values that follow come from patent US9670126B2, “Methods of making 15-hydroxy fatty acid derivatives” (Dignity Sciences Limited, priority 2013, dated 2017).

Data set [1] can be described thus: Solubility (reactor cleaning). To be noted: residues.
Data set [2] can be described thus: Heat stability trial of HETrE under solvent removal conditions (reflux in 40% MtBE:cyclohexane), UPLC. The class given is physicochemical. The method, then:
(§1) Previously, neat HETrE heated at 50° C.
A heat stability trial was conducted where a solution of HETrE (˜9.1 g) in 500 mL 40% MtBE: cyclohexane was heated at 75° C. (external oil bath temperature) at 400 mbar vacuum (condenser coolant temperature −0° C.). This established a gentle reflux. The solution was protected from light. Samples were withdrawn at various time points, under a nitrogen atmosphere, and analysed by UPLC (252 nm) (FIG. 15).
The conditions were designed to mimic the likely conditions encountered on a plant scale solvent removal from pooled column fractions. […] The reflux was extended over a further 112 hours.

A short description of data set [3]: Neat HETrE heated at 50° C. under vacuum. The class given is physicochemical. The following applies: under vacuum (1822-129-4E), 1 major impurity, ester formed with itself. The method, then:
as §1

For data set [4] the following is noted: cited from earlier work.
A short description of data set [5]: Storage stability of freeze dried enzyme, judged in the DGLA reaction. To be noted: stored at ambient, atmospheric conditions for two weeks; then 1.8 Munits/g DGLA. The method, then:
It was also observed that the freeze dried enzyme supplied had good stability. Although recommended to be stored at −20° C., and desiccated after use, the batch was stored at ambient, atmospheric conditions for two weeks before being utilised in a reaction using the optimised enzyme loadings (1.8 Munits/g DGLA). […] The reaction was carried out in buffer solution to maintain pH and solubilise reaction components. Cysteine, a mild reducing agent, was used in place of sodium borohydride. Use of cysteine enabled the oxidation/reduction reaction to be carried out in one step. In addition no flammable hydrogen was generated during reaction/quench. Furthermore, fewer over-oxidation products were produced, likely due to cysteine's anti-oxidant properties. It is also believed that the addition of the reducing agent at beginning of the process helps to lessen irreversible enzyme inactivation by high concentrations of hydroperoxide, thus leading to lower enzyme requirement (e.g., cost savings) and lower potential for over-oxidation.

As for `CCCCC[C@H](O)/C=C/C=C\C/C=C\CCCCCCC(=O)O` [15(S)-HETrE, 15-(S)-hydroxyeicosatrienoic acid], in data set [1], the “solubility in alcohols such as ethanol and methanol, or acetone” value was “readily soluble”. For the same molecule, the “degradation on extended refluxing” value in data set [2] (4.5 days refluxing in 40% MtBE:cyclohexane, external temperature 75° C.) is “did not cause significant degradation”. In data set [2] (in solution and on hot surfaces, timescale of <2 days), the “degradation under plant-typical solvent evaporation conditions” value is on record as “no significant degradation”. Besides, in data set [3], the “degradation of neat material” value is recorded as “showed degradation”.

Consider `N[C@@H](CS)C(=O)O` [Cysteine], for which the solubility in ethanol in data set [4] (19° C.) is given as 1.5 g/100 g of ethanol.

As for `N[C@@H](CSSC[C@H](N)C(=O)O)C(=O)O` [cystine], the “solubility in 1M HCl with heating” value in data set [4] (1M HCl with heating) is 50 mg/mL. Also, the “solubility in basic solutions” value in data set [4] (basic solutions) is reported as “soluble”.

B1: freeze dried enzyme: commercial freeze-dried soybean lipoxygenase (protein, UniProt P08170 1-839, looked up)
Seed linoleate …: MFSAGHKIKGTVVLMPKNELEVNPDGSAVDNLNAFLGRSVSLQLISATKADAHGKGKVGKDTFLEGINTSLPTLGAGESAFNIHFEWDGSMGIPGAFYIKNYMQVEFFLKSLTLEAISNQGTIRFVCNSWVYNTKLYKSVRIFFANHTYVPSETPAPLVSYREEELKSLRGNGTGERKEYDRIYDYDVYNDLGNPDKSEKLARPVLGGSSTFPYPRRGRTGRGPTVTDPNTEKQGEVFYVPRDENLGHLKSKDALEIGTKSLSQIVQPAFESAFDLKSTPIEFHSFQDVHDLYEGGIKLPRDVISTIIPLPVIKELYRTDGQHILKFPQPHVVQVSQSAWMTDEEFAREMIAGVNPCVIRGLEEFPPKSNLDPAIYGDQSSKITADSLDLDGYTMDEALGSRRLFMLDYHDIFMPYVRQINQLNSAKTYATRTILFLREDGTLKPVAIELSLPHSAGDLSAAVSQVVLPAKEGVESTIWLLAKAYVIVNDSCYHQLMSHWLNTHAAMEPFVIATHRHLSVLHPIYKLLTPHYRNNMNINALARQSLINANGIIETTFLPSKYSVEMSSAVYKNWVFTDQALPADLIKRGVAIKDPSTPHGVRLLIEDYPYAADGLEIWAAIKTWVQEYVPLYYARDDDVKNDSELQHWWKEAVEKGHGDLKDKPWWPKLQTLEDLVEVCLIIIWIASALHAAVNFGQYPYGGLIMNRPTASRRLLPEKGTPEYEEMINNHEKAYLRTITSKLPTLISLSVIEILSTHASDEVYLGQRDNPHWTSDSKALQAFQKFGNKLKEIEEKLVRRNNDPSLQGNRLGPVQLPYTLLYPSSEEGLTFRGIPNSISI
On to B1, for which the performance after storage entry in data set [5] was “No deterioration in performance”.
